Data taken from patent US6461997B1, “Triazole sulfones having herbicidal activity” (Monsanto Technology LLC, priority 1999, dated 2002).

Columns and labels:
AMARE (redroot pigweed) = assay: Pre-emergence herbicidal activity, warm season; format: in vivo, Amaranthus retroflexus; details: GR80 = lowest tested rate (300, 100, 30, 10 g/ha) with 80% or greater inhibition; approx. 14 days after treating; 30/21° C.
Procedure, shortened: (§1)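 GR80 values derive from percent inhibition relative to untreated plants, read roughly 14 days after sowing and pre-emergence soil-surface treatment (compound in 50:50 acetone/water; rates typically 10, 30, 100, 300 g/ha). Warm-season weeds grew at 30/21° C day/night, cool-season ones at 18/13° C; an asterisk marks activity without reaching 80% at the highest rate.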

[1] = tested on: PANMI (wild proso millet); assay: Pre-emergence herbicidal activity, warm season; format: in vivo, Panicum miliaceum; details: GR80 = lowest tested rate (300, 100, 30, 10 g/ha) with 80% or greater inhibition; approx. 14 days after treating; 30/21° C.
Procedure, shortened: (§2)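 Activity is expressed as the rate giving 80% inhibition, with 300, 100, 30 and 10 g/ha typically tested. An asterisk marks activity short of 80% at the top rate. Warm-season grasses were held at 30/21 °C; cool-season blackgrass and wild buckwheat at 18/13 °C; scoring at about 14 days.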

[2] = tested on: BRAPP (broadleaf signalgrass); assay: Pre-emergence herbicidal activity, warm season; format: in vivo, Brachiaria platyphylla; details: GR80 = lowest tested rate (300, 100, 30, 10 g/ha) with 80% or greater inhibition; approx. 14 days after treating; 30/21° C.
Description: (§3) Tables 5 to 8 summarize results of tests conducted as described below to determine the pre-emergence herbicidal activity, in the form of a GR80 value, of illustrative compounds of this invention. […] Compounds of the invention were typically applied at rates of 300, 100, 30, and 10 g/ha. Where herbicidal activity was evident but 80% inhibition was not achieved at the highest rate tested, an asterisk (*) is shown in the following tables.
(§4) The pre-emergence tests were conducted by the following procedure. Topsoil was sieved to pass through a 1.27 cm screen. Fertilizer was added to the topsoil and the mixture was then sterilized by heating. The topsoil mixture was placed in a pot and compacted to a depth of 1.0 to 1.25 cm from the top of the pot. Seeds of each of several monocotyledonous and dicotyledonous annual plant species were placed on top of the soil. Additional soil was subsequently placed over the seeds to level-fill the pot. A known amount of each test compound dissolved or suspended in an appropriate organic solvent was diluted with a 50:50 mix of acetone and water and applied to the surface of the soil. After treatment the plants were placed in a greenhouse where they received 0.64 cm of overhead irrigation. All subsequent watering consisted of a light overhead mist and/or subirrigation as needed for germination and growth. Tables 5 and 6 below relate to warm season plant species which were placed after pre-emergence treatment in a greenhouse with a 30/21° C. day/night temperature regime. Tables 7 and 8 below relates to cool season plant species placed after pre-emergence treatment in a greenhouse or growth chamber with an 18/13° C. day/night temperature regime.
(§5) Approximately 14 days after planting and treating, the plants were observed and herbicidal efficacy recorded as percent inhibition by comparison with untreated plants.
(§6) The plant species usually regarded as weeds which were utilized in the tests are identified in the tables below according to the following legend, in which “d” indicates a dicotyledonous species and “m” a monocotyledonous species. All monocotyledonous species included in the tests herein are grasses.

DIGSA (large crabgrass) = assay: Pre-emergence herbicidal activity, warm season; format: in vivo, Digitaria sanguinalis; details: GR80 = lowest tested rate (300, 100, 30, 10 g/ha) with 80% or greater inhibition; approx. 14 days after treating; 30/21° C.
Procedure, shortened: as §2

[3] = tested on: GALAP (catchweed bedstraw); assay: Pre-emergence herbicidal activity, cool season; format: in vivo, Galium aparine; details: lowest tested rate with 80% or greater inhibition; rates 300, 100, 30, 10 g/ha; about 14 days
Procedure, shortened: as §1

POLCO (wild buckwheat) = assay: Pre-emergence herbicidal activity, cool season; format: in vivo, Polygonum convolvulus; details: lowest tested rate with 80% or greater inhibition; rates 300, 100, 30, 10 g/ha; about 14 days
Procedure, shortened: as §2

SINAR (wild mustard) = assay: Pre-emergence herbicidal activity, cool season; format: in vivo, Sinapis arvensis; details: lowest tested rate with 80% or greater inhibition; rates 300, 100, 30, 10 g/ha; about 14 days
Procedure, shortened: as §1

[4] = tested on: VERPE (creeping speedwell); assay: Pre-emergence herbicidal activity, cool season; format: in vivo, Veronica persicaria; details: lowest tested rate with 80% or greater inhibition; rates 300, 100, 30, 10 g/ha; about 14 days
Procedure, shortened: as §1

SASKR (russian thistle) = assay: Pre-emergence herbicidal activity, cool season; format: in vivo, Salsola kali; details: lowest tested rate with 80% or greater inhibition; rates 300, 100, 30, 10 g/ha; about 14 days
Procedure, shortened: as §1

STEME (common chickweed) = assay: Pre-emergence herbicidal activity, cool season; format: in vivo, Stellaria media; details: lowest tested rate with 80% or greater inhibition; rates 300, 100, 30, 10 g/ha; about 14 days
Procedure, shortened: as §1

[5] = tested on: LAMPU (purple deadnettle); assay: Pre-emergence herbicidal activity, cool season; format: in vivo, Lamium purpureum; details: lowest tested rate with 80% or greater inhibition; rates 300, 100, 30, 10 g/ha; about 14 days
Procedure, shortened: as §1

ALOMY (blackgrass) = assay: Pre-emergence herbicidal activity, cool season; format: in vivo, Alopecurus myosuroides; details: GR80 = lowest tested rate (300, 100, 30, 10 g/ha) with 80% or greater inhibition; approx. 14 days after treating; 18/13° C.
Procedure, shortened: as §2

SETVI (green foxtail) = assay: Pre-emergence herbicidal activity, cool season; format: in vivo, Setaria viridis; details: GR80 = lowest tested rate (300, 100, 30, 10 g/ha) with 80% or greater inhibition; approx. 14 days after treating; 18/13° C.
Procedure, shortened: as §1

LOLMG (annual ryegrass) = assay: Pre-emergence herbicidal activity, cool season; format: in vivo, Lolium multiflorum; details: GR80 = lowest tested rate (300, 100, 30, 10 g/ha) with 80% or greater inhibition; approx. 14 days after treating; 18/13° C.
Description: as §3, §4, §5, §6

[6] = tested on: AGSST (creeping bentgrass); assay: Pre-emergence herbicidal activity, cool season; format: in vivo, Agrostis stolonifera; details: GR80 = lowest tested rate (300, 100, 30, 10 g/ha) with 80% or greater inhibition; approx. 14 days after treating; 18/13° C.
Procedure, shortened: as §1

SOLNI (black nightshade) = assay: Pre-emergence herbicidal activity, warm season; format: in vivo, Solanum nigrum; details: GR80 = lowest tested rate (300, 100, 30, 10 g/ha) with 80% or greater inhibition; approx. 14 days after treating; 30/21° C.
Procedure, shortened: as §1

[7] = tested on: CHEAL (common lambsquarters); assay: Pre-emergence herbicidal activity, warm season; format: in vivo, Chenopodium album; details: GR80 = lowest tested rate (300, 100, 30, 10 g/ha) with 80% or greater inhibition; approx. 14 days after treating; 30/21° C.
Procedure, shortened: as §1

POROL (common purslane) = assay: Pre-emergence herbicidal activity, warm season; format: in vivo, Portulaca oleracea; details: GR80 = lowest tested rate (300, 100, 30, 10 g/ha) with 80% or greater inhibition; approx. 14 days after treating; 30/21° C.
Procedure, shortened: as §1

[8] = tested on: CIRAR (canada thistle (seedling)); assay: Pre-emergence herbicidal activity, warm season; format: in vivo, Cirsium arvense; details: GR80 = lowest tested rate (300, 100, 30, 10 g/ha) with 80% or greater inhibition; approx. 14 days after treating; 30/21° C.
Procedure, shortened: as §1

ECHCG (barnyardgrass) = assay: Pre-emergence herbicidal activity, warm season; format: in vivo, Echinochloa crus-galli; details: GR80 = lowest tested rate (300, 100, 30, 10 g/ha) with 80% or greater inhibition; approx. 14 days after treating; 30/21° C.
Procedure, shortened: as §1

[9] = tested on: SORHA (johnsongrass (seedling)); assay: Pre-emergence herbicidal activity, warm season; format: in vivo, Sorghum halepense; details: GR80 = lowest tested rate (300, 100, 30, 10 g/ha) with 80% or greater inhibition; approx. 14 days after treating; 30/21° C.
Procedure, shortened: as §1

SETFA (giant foxtail) = assay: Pre-emergence herbicidal activity, warm season; format: in vivo, Setaria faberi; details: GR80 = lowest tested rate (300, 100, 30, 10 g/ha) with 80% or greater inhibition; approx. 14 days after treating; 30/21° C.
Procedure, shortened: as §1

SORVU (shattercane) = assay: Pre-emergence herbicidal activity, warm season; format: in vivo, Sorghum vulgare; details: GR80 = lowest tested rate (300, 100, 30, 10 g/ha) with 80% or greater inhibition; approx. 14 days after treating; 30/21° C.
Description: as §3, §4, §5, §6

CCCN(CC)C(=O)n1cnc(S(=O)(=O)C(F)F)n1 [Example 28]
30 g/ha: Pre-emergence activity GR80, GALAP [3] | Pre-emergence activity GR80, SASKR (SASKR (russian thistle)) | Pre-emergence activity GR80, LAMPU [5] | Pre-emergence activity (GR80) ALOMY (ALOMY (blackgrass)) | Pre-emergence activity (GR80) SETVI (SETVI (green foxtail)) | Pre-emergence activity (GR80) AGSST [6]
[empty]: Pre-emergence activity GR80, POLCO (POLCO (wild buckwheat))
300 g/ha: Pre-emergence activity (GR80) AMARE (AMARE (redroot pigweed)) | Pre-emergence activity (GR80) PANMI [1] | Pre-emergence activity (GR80) BRAPP [2] | Pre-emergence activity (GR80) DIGSA (DIGSA (large crabgrass)) | Pre-emergence activity (GR80) LOLMG (LOLMG (annual ryegrass))
10 g/ha: Pre-emergence activity GR80, SINAR (SINAR (wild mustard)) | Pre-emergence activity GR80, VERPE [4] | Pre-emergence activity GR80, STEME (STEME (common chickweed))

CN(C(=O)n1cnc(S(=O)(=O)C(F)F)n1)C1CCCCC1 [Example 32]
300 g/ha: Pre-emergence activity (GR80) SOLNI (SOLNI (black nightshade)) | Pre-emergence activity (GR80) AMARE (AMARE (redroot pigweed)) | Pre-emergence activity (GR80) CHEAL [7] | Pre-emergence activity (GR80) CIRAR [8] | Pre-emergence activity (GR80) ECHCG (ECHCG (barnyardgrass)) | Pre-emergence activity (GR80) PANMI [1] | Pre-emergence activity (GR80) SETFA (SETFA (giant foxtail)) | Pre-emergence activity (GR80) SORVU (SORVU (shattercane)) | Pre-emergence activity (GR80) DIGSA (DIGSA (large crabgrass)) | Pre-emergence activity GR80, VERPE [4] | Pre-emergence activity GR80, STEME (STEME (common chickweed)) | Pre-emergence activity (GR80) ALOMY (ALOMY (blackgrass)) | Pre-emergence activity (GR80) LOLMG (LOLMG (annual ryegrass)) | Pre-emergence activity (GR80) AGSST [6]
[empty]: Pre-emergence activity GR80, POLCO (POLCO (wild buckwheat)) | Pre-emergence activity GR80, SASKR (SASKR (russian thistle)) | Pre-emergence activity GR80, LAMPU [5]
100 g/ha: Pre-emergence activity (GR80) POROL (POROL (common purslane)) | Pre-emergence activity GR80, GALAP [3] | Pre-emergence activity GR80, SINAR (SINAR (wild mustard)) | Pre-emergence activity (GR80) SETVI (SETVI (green foxtail))
30 g/ha: Pre-emergence activity (GR80) SORHA [9]

CCCN(CC)C(=O)n1cnc(S(=O)(=O)C(F)(F)Br)n1 [Example 39]
300 g/ha: Pre-emergence activity (GR80) AMARE (AMARE (redroot pigweed)) | Pre-emergence activity (GR80) CHEAL [7] | Pre-emergence activity (GR80) ECHCG (ECHCG (barnyardgrass)) | Pre-emergence activity (GR80) PANMI [1] | Pre-emergence activity (GR80) ALOMY (ALOMY (blackgrass)) | Pre-emergence activity (GR80) LOLMG (LOLMG (annual ryegrass))
30 g/ha: Pre-emergence activity GR80, SINAR (SINAR (wild mustard)) | Pre-emergence activity GR80, STEME (STEME (common chickweed)) | Pre-emergence activity GR80, LAMPU [5] | Pre-emergence activity (GR80) AGSST [6]
100 g/ha: Pre-emergence activity (GR80) SORHA [9] | Pre-emergence activity (GR80) SETFA (SETFA (giant foxtail)) | Pre-emergence activity GR80, GALAP [3] | Pre-emergence activity GR80, POLCO (POLCO (wild buckwheat)) | Pre-emergence activity GR80, SASKR (SASKR (russian thistle)) | Pre-emergence activity (GR80) SETVI (SETVI (green foxtail))
10 g/ha: Pre-emergence activity GR80, VERPE [4]
